From patent publication US9234848B2, “Compounds having chromophore and photoreactive groups” (CENTRE NATIONAL DE LA RECHERCHE SCIENTIFIQUE (C.N.R.S.), priority 2011, dated 2016)

molecular target: T1, Halobacterium salinarum bacterio-rhodopsin (Halobacterium salinarum, UniProt P02945); assay: Photomarking of bacteriorhodopsin (covalent bridging after UV irradiation, fluorescence detected on gel); format: biochemical; conditions: compound in DPC micelles (1:50 molar), protein-compound molar ratio 1:5, 1 hour in darkness at 4° C., 45 s UV irradiation, gel read on Fluorimager with rhodamine filter
T1 construct: purchased SIGMA
T1 sequence (P02945 14-262): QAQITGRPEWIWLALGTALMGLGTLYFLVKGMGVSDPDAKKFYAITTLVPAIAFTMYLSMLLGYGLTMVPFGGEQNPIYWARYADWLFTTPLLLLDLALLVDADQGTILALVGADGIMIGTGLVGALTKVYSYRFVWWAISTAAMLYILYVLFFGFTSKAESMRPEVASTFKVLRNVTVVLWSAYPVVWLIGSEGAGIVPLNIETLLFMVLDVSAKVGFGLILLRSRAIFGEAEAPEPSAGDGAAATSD
Procedure: • Reagents: • Dodecylphosphocholine (DPC) and Halobacterium salinarum bacterio-rhodopsin are from SIGMA. Egg yolk phosphatidylcholine (PC) and cholesterol (chol, 99% pure) are from Avanti Polar Lipids (Alabaster, USA). • Preparation of the Liposomes: • PC, chol and the lipid tool (12a-c) (molar ratio 65:30:5) dissolved in chloroform are mixed in a test tube. After evaporation of the solvent with heat (45 mins at 37° C.), the dry film is hydrated by adding 300 μl of PBS at pH 7.4 in order to obtain a final concentration of lipids of 5 mM. The mixture is stirred and the resulting suspension is heated to 37° C., and then cooled in liquid nitrogen 5 times, and then passed through an extruder equipped with two 100 nm filters (35 passages). • Fluorescence Spectroscopy: • The excitation and emission spectra of the probe compounds according to the invention, within liposomes are recorded at 32° C. on a TECAN Infinite M1000 spectrofluorimeter. The lipid composition of the liposomes is PC:chol:lipid-tool 65:30:5 (molar ratio). The <> control liposomes consist of PC:chol, and their residual fluorescence is subtracted from the measured fluorescence spectra. • Photomarking of Bacteriorhodopsin: • DPC is added to a compound as a solution in chloroform-methanol (2/1, v/v) in the compound/detergent proportion of 1:50 molar. After evaporation in a high vacuum for 2 hours, the dry lipid film is hydrated by adding 50 μL of distilled water and 50 μl of Tris-HCl pH 8.0. The bacterio-rhodopsin resuspended in distilled water, is incubated with the compounds according to invention in detergent micelles, in a protein-compound molar ratio of 1:5. […] After migration, the gel is first analyzed on a Fluorimager Typhoon 8600 equipped with a rhodamine filter, in order to detect fluorescence; the gel is then colored with Coomassie blue for viewing all the protein bands. […]

Row | Compound | Intensity of the photomarking signal (arbitrary units - AU)
1 | CCCCCCCCCCc1ccc(C(=O)c2ccc(CC(=O)O)cc2)cc1 [1c, (4-(4-decylbenzoyl)phenyl)ethanoic acid] | 1 AU
2 | Cc1ccc(C(=O)c2ccc(CCCCCCCCCCC(=O)O)cc2)cc1 [1b] | 10 AU
3 | CCCCCCc1ccc(C(=O)c2ccc(CCCCCC(=O)O)cc2)cc1 [1a, 6-(4-(4-n-hexylbenzoyl)phenyl)hexanoic acid] | 5 AU
